Test results published in patent publication US20230271950A1, “ANTIBACTERIAL PICOLINAMIDE COMPOUNDS” (University of Notre Dame Du Lac, priority 2020, published 2023).
In brackets after ≈: the same amount, converted by molar mass. Read-outs that look alike come from different tables or passages of the source.

Key:
E. faecium NCTC7171 = assay: MIC against E. faecium; type: cell-based, Enterococcus faecium; settings: Enterococcus faecium; E. faecium NCTC7171; Table 1; read-out: MIC
[1] = tested on: Fecal microbiota preparation; assay: MIC against fecal microbiota preparation; type: cell-based; settings: Fecal microbiota preparation from OpenBiome tested at 1000-fold dilution
Protocol: Minimum inhibitory concentrations (MIC). MICs for C. difficile strains and the common gut bacteria were determined using broth microdilution techniques as reported earlier using brucella broth supplemented with hemin and vitamin K or supplemented BHIS broth. Lactobacillus MRS broth was used for lactobacillus strains. Sodium lactate was supplemented in the media for Veillonella sp. […] All incubations, unless specified otherwise, were carried out at 24 h or 48 h at 37° C. in an anaerobic chamber (Whitley DG250 workstation, Microbiology International, Frederick, Md.). Corynebacterium and Lactobacillus species were incubated aerobically.

C. difficile = assay: MIC by broth microdilution against C. difficile strains; type: cell-based, Clostridioides difficile; settings: Clostridioides difficile, read-out: MIC

MIC (E. faecium NCTC7171): > 128 µg/mL | MIC [1]: > 128 µg/mL | MIC (C. difficile; ATCC43255, C. difficile ATCC43255 (TcdA+, TcdB+), Table 1): 0.25 µg/mL (≈ 1.46 µM) | MIC (C. difficile; ATCC43255, C. difficile ATCC43255, Table 7): 0.25 µg/mL (≈ 1.46 µM) | MIC (C. difficile; ATCC43255, C. difficile ATCC43255, Table 9): 0.25 µg/mL (≈ 1.46 µM) | MIC (C. difficile; BAA1803, C. difficile BAA-1803, Table 7): 0.5 µg/mL (≈ 2.92 µM) | MIC (C. difficile; BAA1803, C. difficile BAA-1803, Table 9): 0.5 µg/mL (≈ 2.92 µM) | MIC (C. difficile; BAA1804, C. difficile BAA-1804, Table 7): 0.25 µg/mL (≈ 1.46 µM) | MIC (C. difficile; BAA1804, C. difficile BAA-1804, Table 9): 0.25 µg/mL (≈ 1.46 µM) | MIC (C. difficile; BAA1812, C. difficile BAA-1812, Table 7): 0.25 µg/mL (≈ 1.46 µM) | MIC (C. difficile; BAA1812, C. difficile BAA-1812, Table 9): 0.25 µg/mL (≈ 1.46 µM) | MIC (C. difficile; BAA1814, C. difficile BAA-1814, Table 7): 0.25 µg/mL (≈ 1.46 µM) | MIC (C. difficile; BAA1814, C. difficile BAA-1814, Table 9): 0.25 µg/mL (≈ 1.46 µM) | MIC (C. difficile; BAA1870, C. difficile BAA-1870 (NAP1, ribotype 27), Table 1): 0.5 µg/mL (≈ 2.92 µM) | MIC (C. difficile; BAA1870, C. difficile BAA-1870, Table 7): 0.5 µg/mL (≈ 2.92 µM) | MIC (C. difficile; BAA1870, C. difficile BAA-1870, Table 9): 0.5 µg/mL (≈ 2.92 µM) | MIC (C. difficile; C. difficile 23691 (VR, vancomycin-resistant), Table 7): 0.5 µg/mL (≈ 2.92 µM) | MIC (C. difficile; C. difficile 23691, clinical isolate resistant to VAN, Table 1): 0.5 µg/mL (≈ 2.92 µM) | MIC (C. difficile; C. difficile 23691, Table 9): 0.5 µg/mL (≈ 2.92 µM) | MIC (C. difficile; C. difficile 23828 (FR, fidaxomicin-resistant), Table 7): 0.5 µg/mL (≈ 2.92 µM) | MIC (C. difficile; C. difficile 23828, clinical isolate resistant to FDX, Table 1): 0.5 µg/mL (≈ 2.92 µM) | MIC (C. difficile; C. difficile 23828, Table 9): 0.5 µg/mL (≈ 2.92 µM) | MIC (C. difficile; C. difficile 24531 (VR, vancomycin-resistant), Table 7): 0.5 µg/mL (≈ 2.92 µM) | MIC (C. difficile; C. difficile 24531, Table 9): 0.5 µg/mL (≈ 2.92 µM) | MIC (C. difficile; C. difficile 24923 (VR, vancomycin-resistant), Table 7): 0.25 µg/mL (≈ 1.46 µM) | MIC (C. difficile; C. difficile 24923, Table 9): 0.25 µg/mL (≈ 1.46 µM) | MIC (C. difficile; C. difficile 26675 (MR, metronidazole-resistant), Table 7): 4 µg/mL (≈ 23.4 µM) | MIC (C. difficile; C. difficile 26675, clinical isolate resistant to MTZ, Table 1): 4 µg/mL (≈ 23.4 µM) | MIC (C. difficile; C. difficile 26675, Table 9): 4 µg/mL (≈ 23.4 µM) | MIC (C. difficile; C. difficile 27081 (FR, fidaxomicin-resistant), Table 7): 0.5 µg/mL (≈ 2.92 µM) | MIC (C. difficile; C. difficile 27081, Table 9): 0.5 µg/mL (≈ 2.92 µM) | MIC (C. difficile; C. difficile 27173 (MR, metronidazole-resistant), Table 7): 4 µg/mL (≈ 23.4 µM) | MIC (C. difficile; C. difficile 27173, Table 9): 4 µg/mL (≈ 23.4 µM) | MIC (C. difficile; C. difficile HM-88, Table 9): 0.25 µg/mL (≈ 1.46 µM) | MIC (C. difficile; C. difficile HM-89, Table 9): 0.25 µg/mL (≈ 1.46 µM) | MIC (C. difficile; C. difficile HM-745, Table 9): 0.5 µg/mL (≈ 2.92 µM) | MIC (C. difficile; C. difficile HM-746, Table 9): 0.25 µg/mL (≈ 1.46 µM) | MIC (C. difficile; C. difficile HM-747, Table 9): 0.5 µg/mL (≈ 2.92 µM) | MIC (C. difficile; C. difficile NR49292, Table 7): 0.25 µg/mL (≈ 1.46 µM) | MIC (C. difficile; C. difficile NR49292, Table 9): 0.25 µg/mL (≈ 1.46 µM) | MIC (C. difficile; C. difficile NR49294, Table 7): 0.25 µg/mL (≈ 1.46 µM) | MIC (C. difficile; C. difficile NR49294, Table 9): 0.25 µg/mL (≈ 1.46 µM) | MIC (C. difficile; C. difficile NR49305, Table 7): 0.25 µg/mL (≈ 1.46 µM) | MIC (C. difficile; C. difficile NR49305, Table 9): 0.25 µg/mL (≈ 1.46 µM) | MIC (C. difficile; C. difficile NR49318, Table 7): 0.25 µg/mL (≈ 1.46 µM) | MIC (C. difficile; C. difficile NR49318, Table 9): 0.25 µg/mL (≈ 1.46 µM) | MIC (C. difficile; C. difficile NR-13427, Table 9): 1 µg/mL (≈ 5.84 µM) | MIC (C. difficile; C. difficile NR-13428, Table 9): 1 µg/mL (≈ 5.84 µM) | MIC (C. difficile; C. difficile NR-13429, Table 9): 1 µg/mL (≈ 5.84 µM) | MIC (C. difficile; C. difficile NR-13430, Table 9): 0.5 µg/mL (≈ 2.92 µM) | MIC (C. difficile; C. difficile NR-13431, Table 9): 0.5 µg/mL (≈ 2.92 µM) | MIC (C. difficile; C. difficile NR-13433, Table 9): 0.5 µg/mL (≈ 2.92 µM) | MIC (C. difficile; C. difficile NR-13434, Table 9): 0.5 µg/mL (≈ 2.92 µM) | MIC (C. difficile; C. difficile NR-13435, Table 9): 0.5 µg/mL (≈ 2.92 µM) | MIC (C. difficile; C. difficile NR-13436, Table 9): 0.5 µg/mL (≈ 2.92 µM) | MIC (C. difficile; C. difficile NR-13437, Table 9): 0.5 µg/mL (≈ 2.92 µM) | MIC (C. difficile; C. difficile NR-13438, Table 9): 0.5 µg/mL (≈ 2.92 µM) | MIC (C. difficile; C. difficile NR-13553, Table 9): 0.5 µg/mL (≈ 2.92 µM) | MIC (C. difficile; C. difficile NR-32882, Table 9): 0.25 µg/mL (≈ 1.46 µM) | MIC (C. difficile; C. difficile NR-32883, Table 9): 0.5 µg/mL (≈ 2.92 µM) | MIC (C. difficile; C. difficile NR-32884, Table 9): 0.5 µg/mL (≈ 2.92 µM) | MIC (C. difficile; C. difficile NR-32885, Table 9): 0.5 µg/mL (≈ 2.92 µM) | MIC (C. difficile; C. difficile NR-32886, Table 9): 0.5 µg/mL (≈ 2.92 µM) | MIC (C. difficile; C. difficile NR-32887, Table 9): 2 µg/mL (≈ 11.7 µM) | MIC (C. difficile; C. difficile NR-32888, Table 9): 0.5 µg/mL (≈ 2.92 µM) | MIC (C. difficile; C. difficile NR-32889, Table 9): 2 µg/mL (≈ 11.7 µM) | MIC (C. difficile; C. difficile NR-32890, Table 9): 0.5 µg/mL (≈ 2.92 µM) | MIC (C. difficile; C. difficile NR-32891, Table 9): 0.25 µg/mL (≈ 1.46 µM) | MIC (C. difficile; C. difficile NR-32892, Table 9): 0.5 µg/mL (≈ 2.92 µM) | MIC (C. difficile; C. difficile NR-32895, Table 9): 1 µg/mL (≈ 5.84 µM) | MIC (C. difficile; C. difficile NR-32896, Table 9): 1 µg/mL (≈ 5.84 µM)
Compound: Cc1ncc([N+](=O)[O-])n1CCO [MTZ, metronidazole, reference compound]
